Experimental data taken from patent US20250195530A1, “POLQ INHIBITORS” (ASTRAZENECA AB, priority 2022, published 2025).
Where two headings read alike, the source gives them in different places.

Columns and labels:
[1] = system: DLD-1 cells; assay: Inhibition of proliferation, DLD-1 BRCA2 wt control (Cell Titre Glo 3D); type: cell-based; settings: for IC50: Homo sapiens
From the text: This assay identifies anti-proliferative effects of POLQ compounds in the homologous recombination deficient colorectal cell line DLD-1 BRCA2−/− over 8-9 population doublings (7 days for DLD-1 and 12 days for DLD-1 BRCA2−/−). DLD1 BRCA2 wt are used as a control to detect cell toxic effects not specific to homologous recombination deficiency.
DLD-1 BRCA2−/− and DLD-1 cells were kept in continuous culture in Assay Medium (RPMI 1640 phenol red free (Sigma R7509) containing 1% GlutaMAX (Gibco 35050) and 10% Foetal Bovine Serum (Gibco 10270-106)). On the day of the assay cells in culture of ˜80-90% confluent were used. Cell monolayers were washed with 10 mL PBS, then removed and added 2 mL TrypLE Express (Gibco 12604). The cells with TrypLE Express were incubated for 5 minutes in cell culture incubator and then the detached cells resuspend in 15 mL Assay Medium. Cells were counted using a ViCell and the cell images were monitored for clumps of cells, ideally they should be single or <3 cell clusters. The cells were diluted to 3,000 cells/mL of DLD-1 BRCA2−/− and 1,500 cells/mL of DLD-1 in Assay Medium and 100 μL added per well of transparent bottomed, black, tissue culture-treated 96-well plates (CoStar, No. 3904) Assay Ready Plates. The Assay Ready Plates contain a 10 point 10 μM to 0.51 nM dose range with three-fold dilutions in DMSO with a final volume of 100 nL. The plates were incubated at 37° C. with 5% C02 for 6 days. On day 6, 100 μL/well of Assay Medium was added to duplicate Assay Ready Plates. 90 μL of culture medium was removed from the cell plates and replenished with the Assay Media and compounds from the duplicate Assay Ready Plates using the Bravo. The plates were further incubated at 37° C. with 5% CO2. On day 7 the plates containing DLD-1 and Cell Titre Glo 3D (Promega G9683) were equilibrated to room temperature, then 60 μL of Cell Titre Glo 3D was added per well and incubated on a shaking platform for 30 min. Plates were read on the Envision measuring luminescence for 1 second per well. On day 12 the plates containing DLD-1 BRCA2−/− cells and Cell Titre Glo 3D (Promega G9683) were equilibrated to room temperature, then 60 μL Cell Titre Glo 3D added per well and incubated on a shaking platform for 30 min. Plates were read on the Envision measuring luminescence for 1 second per well. The data was exported into a suitable software package (such as Genedata) to perform curve fitting analysis. Inhibition of cell proliferation was expressed as an IC5o value and was determined by calculation of the concentration of compound that was required to give a 50% reduction of the average maximum Total Intensity signal.

[2] = system: DLD-1 BRCA2−/− cells; assay: Homologous recombination synthetic lethal inhibition of proliferation, DLD-1 BRCA2-/- (Cell Titre Glo 3D); type: cell-based; settings: for IC50: Homo sapiens
How it was run: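 Proliferation of HR-deficient DLD-1 BRCA2−/− versus isogenic wild-type DLD-1 was measured by ATP luminescence (CellTiter-Glo 3D). Compound exposure lasted 12 or 7 days, respectively, with a fresh dose on day 6. IC50 was the concentration halving maximal signal.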

[3] = DLD-1, second proliferation column (c6), taken as DLD-1 BRCA2 wt, read-out: POLQ PD Prolif Lumin (converted)
[4] = DLD-1, first proliferation column (c5), taken as DLD-1 BRCA2-/-, read-out: POLQ PD Prolif Lumin (converted)
[5] = DLD-1, second proliferation column (c6), DLD-1 BRCA2 wt control, read-out: POLQ PD Prolif Lumin (converted)
[6] = DLD-1, first proliferation column (c5), DLD-1 BRCA2-/-, read-out: POLQ PD Prolif Lumin (converted)
[7] = DLD-1, 168 h, DLD-1 BRCA2 wt cells, 7 days, read-out: POLQ PD Prolif Lumin DLD1 mean pIC50 (converted)
[8] = DLD-1, 288 h, DLD-1 BRCA2−/− cells, 12 days, read-out: POLQ PD Prolif Lumin BRCA2 −/− mean pIC50 (converted)
[9] = DLD-1, proliferation, luminescence, second Prolif column (c6), taken as DLD-1 BRCA2 wt control, read-out: POLQ PD Prolif Lumin (converted)
[10] = DLD-1, proliferation, luminescence, taken as DLD-1 BRCA2-/-, read-out: POLQ PD Prolif Lumin (converted)

Compound | IC50 [1, 5] | IC50 [1, 7] | IC50 [2, 6] | IC50 [2, 8] | other results
CC1(Oc2ncnc3c2nc(-c2ccc(OCCN4CCNCC4)cc2Cl)n3Cc2cc(Cl)c(F)cn2)CC1 [Example T346, 8-(2-chloro-4-(2-(piperazin-1-yl)ethoxy)phenyl)-9-((4-chloro-5-fluoropyridin-2-yl)methyl)-6-(1-methylcyclopropoxy)-9H-purine] |  |  |  |  | IC50 [1, 3]: > 10000 nM; IC50 [2, 4]: 1580 nM
CC1(Oc2ncnc3c2nc(-c2cccc(OCCC(=O)O)c2Cl)n3Cc2cc(Cl)ccc2C#N)CC1 [Example U96, 3-(2-chloro-3-(9-(5-chloro-2-cyanobenzyl)-6-(1-methylcyclopropoxy)-9H-purin-8-yl)phenoxy)propanoic acid] |  |  |  |  | IC50 ([1]; DLD-1, DLD1 BRCA2 wt, mean, read-out: POLQ PD Prolif Lumin DLD1 mean pIC50 (converted)): > 10000 nM; IC50 ([2]; DLD-1, DLD-1 BRCA2 −/−, mean, read-out: POLQ PD Prolif Lumin BRCA2 −/− mean pIC50 (converted)): 10 nM
CC1(Oc2ncnc3c2nc(-c2ccc(OCCN4CCNCC4)cc2Cl)n3CCc2ccccc2)CC1 [Example J12, 8-(2-chloro-4-(2-(piperazin-1-yl)ethoxy)phenyl)-6-(1-methylcyclopropoxy)-9-phenethyl-9H-purine] |  | > 10000 nM |  | 501 nM | 
Cc1ccnc(Cn2c(-c3ccc(C(=O)N4CCC(F)CC4)cc3Cl)nc3c(OC4(C)CC4)ncnc32)c1 [Example T419, (3-chloro-4-(6-(1-methylcyclopropoxy)-9-((4-methylpyridin-2-yl)methyl)-9H-purin-8-yl)phenyl)(4-fluoropiperidin-1-yl)methanone] |  |  |  |  | IC50 [1, 9]: > 10000 nM; IC50 [2, 10]: 1000 nM
CC1(Oc2ncnc3c2nc(-c2ccc(O[C@H]4C[C@@H](C(=O)O)C4)cc2Cl)n3Cc2cccc(Cl)c2)CC1 [Example T254, (1s,3s)-3-(3-chloro-4-(9-(3-chlorobenzyl)-6-(1-methylcyclopropoxy)-9H-purin-8-yl)phenoxy)cyclobutane-1-carboxylic acid] |  |  |  |  | POLQ PD Prolif Lumin ([1]; DLD-1 BRCA2 wt control proliferation, column head only partly shown): <5.0; POLQ PD Prolif Lumin ([2]; DLD-1 BRCA2-/- proliferation, column head only partly shown): 6.8
CC1(Oc2ncnc3c2nc(-c2ccc(OCCN4CCNCC4)cc2Cl)n3Cc2cc(Cl)ccn2)CC1 [Example 10, 8-(2-Chloro-4-(2-(piperazin-1-yl)ethoxy)phenyl)-9-((4-chloropyridin-2-yl)methyl)-6-(1-methylcyclopropoxy)-9H-purine] |  | > 10000 nM |  | 200 nM | 
Cc1ccnc(Cn2c(-c3ccc(NC(=O)N4CC[C@@H](O)C4)cc3Cl)nc3c(OC4(C)CC4)ncnc32)c1 [Example T342, (R)-N-(3-chloro-4-(6-(1-methylcyclopropoxy)-9-((4-methylpyridin-2-yl)methyl)-9H-purin-8-yl)phenyl)-3-hydroxypyrrolidine-1-carboxamide] |  |  |  |  | IC50 [1, 3]: > 10000 nM; IC50 [2, 4]: > 3980 nM
CNCCOc1ccc(-c2nc3c(OC4(C)CC4)ncnc3n2Cc2ncc(C)s2)c(Cl)c1 [Example T34, 2-(3-chloro-4-(6-(1-methylcyclopropoxy)-9-((5-methylthiazol-2-yl)methyl)-9H-purin-8-yl)phenoxy)-N-methylethan-1-amine] |  |  |  |  | IC50 ([1]; DLD-1, DLD1 BRCA2 wt cells, mean, read-out: POLQ PD Prolif Lumin DLD1 mean PIC50 (converted)): > 10000 nM; IC50 ([2]; DLD-1, DLD-1 BRCA2 −/− cells, mean, read-out: POLQ PD Prolif Lumin BRCA2 −/− mean pIC50 (converted)): 501 nM
CC1(Oc2ncnc3c2nc(-c2ccc(OCCN4CCNCC4)cc2Cl)n3Cc2ccccn2)CCC1 [Example J7, 8-(2-chloro-4-(2-(piperazin-1-yl)ethoxy)phenyl)-6-(1-methylcyclobutoxy)-9-(pyridin-2-ylmethyl)-9H-purine] |  | 7940 nM |  | 316 nM | 
Cc1ccnc(Cn2c(-c3ccc(CC(=O)NC4CC4)cc3Cl)nc3c(OC4(C)CC4)ncnc32)c1 [Example T310, 2-(3-chloro-4-(6-(1-methylcyclopropoxy)-9-((4-methylpyridin-2-yl)methyl)-9H-purin-8-yl)phenyl)-N-cyclopropylacetamide] |  |  |  |  | IC50 [1, 3]: > 10000 nM; IC50 [2, 4]: 398 nM
Cc1cc(OC[C@H]2COCCN2)ncc1-c1nc2c(OC3(C)CC3)ncnc2n1Cc1ccccc1 [Example G16, (R)-3-(((5-(9-benzyl-6-(1-methylcyclopropoxy)-9H-purin-8-yl)-4-methylpyridin-2-yl)oxy)methyl)morpholine] |  | > 10000 nM |  | 794 nM | 
Clc1cccc(Cn2c(-c3ccc(OCCN4CCNCC4)cc3Cl)nc3c(OC4CC4)ncnc32)c1 [Example Q4, 8-(2-chloro-4-(2-(piperazin-1-yl)ethoxy)phenyl)-9-(3-chlorobenzyl)-6-cyclopropoxy-9H-purine] |  | 2000 nM |  | 200 nM | 
FC(F)(F)C1(Oc2ncnc3c2nc(-c2ccc(OCCN4CCNCC4)cc2Cl)n3Cc2ccccc2)COC1 [Example T424, 9-benzyl-8-(2-chloro-4-(2-(piperazin-1-yl)ethoxy)phenyl)-6-((3-(trifluoromethyl)oxetan-3-yl)oxy)-9H-purine] |  |  |  |  | IC50 [1, 9]: 10000 nM; IC50 [2, 10]: 2000 nM
CC1(Oc2ncnc3c2nc(-c2ccc(OCCN4CCNC(=O)CC4)cc2Cl)n3Cc2ccccc2)CC1 [Example H21, 1-(2-(4-(9-benzyl-6-(1-methylcyclopropoxy)-9H-purin-8-yl)-3-chlorophenoxy)ethyl)-1,4-diazepan-5-one] |  | > 10000 nM |  | 63.1 nM | 

Second part, led by results:

IC50 [1, 5] | IC50 [1, 7] | Compound | IC50 [2, 6] | IC50 [2, 8] | other results
> 10000 nM |  | Cc1ccnc(Cn2c(-c3ccc(NC(=O)NCCO)cc3Cl)nc3c(OC4(C)CC4)ncnc32)c1 [Example T132, 1-(3-chloro-4-(6-(1-methylcyclopropoxy)-9-((4-methylpyridin-2-yl)methyl)-9H-purin-8-yl)phenyl)-3-(2-hydroxyethyl)urea] | 2000 nM |  | 
> 10000 nM |  | Cc1ccnc(Cn2c(-c3ccc(OC4CNC(=O)OC4)cc3Cl)nc3c(OC4(C)CC4)ncnc32)c1 (racemic) [Example T187, 5-(3-chloro-4-(6-(1-methylcyclopropoxy)-9-((4-methylpyridin-2-yl)methyl)-9H-purin-8-yl)phenoxy)-1,3-oxazinan-2-one] | 1000 nM |  | 
> 10000 nM |  | CN(C)CCOc1ccc(-c2nc3c(OC4(C)CC4)ncnc3n2Cc2cc(Cl)ccn2)c(Cl)c1 [Example T135, 2-(3-chloro-4-(9-((4-chloropyridin-2-yl)methyl)-6-(1-methylcyclopropoxy)-9H-purin-8-yl)phenoxy)-N,N-dimethylethan-1-amine] | 50.1 nM |  | 
> 10000 nM |  | Cc1ccnc(Cn2c(-c3ccc(N4CC[C@@H](O)C4=O)cc3Cl)nc3c(OC4(C)CC4)ncnc32)c1 [Example T181, (R)-1-(3-chloro-4-(6-(1-methylcyclopropoxy)-9-((4-methylpyridin-2-yl)methyl)-9H-purin-8-yl)phenyl)-3-hydroxypyrrolidin-2-one] | 316 nM |  | 
> 10000 nM |  | Cc1ccnc(Cn2c(-c3ccc(C(=O)NCCO)cc3Cl)nc3c(OC4(C)CC4)ncnc32)c1 [Example T119, 3-chloro-N-(2-hydroxyethyl)-4-(6-(1-methylcyclopropoxy)-9-((4-methylpyridin-2-yl)methyl)-9H-purin-8-yl)benzamide] | 794 nM |  | 
> 10000 nM |  | Cc1ccnc(Cn2c(-c3ccc(NC(=O)[C@@H](C)O)cc3Cl)nc3c(OC4(C)CC4)ncnc32)c1 [Example T121, (R)-N-(3-chloro-4-(6-(1-methylcyclopropoxy)-9-((4-methylpyridin-2-yl)methyl)-9H-purin-8-yl)phenyl)-2-hydroxypropanamide] | 316 nM |  | 
